Test results reported in patent US20260274832A1, “COMPOUNDS AND THEIR USE IN TREATING CANCER” (ASTRAZENECA AB, priority 2023, published 2026).

Experiments:
[1] = target: T1, AR (AR-full length) in LNCaP cells (Homo sapiens, UniProt P10275, T878A); assay: LNCaP Androgen Receptor Imaging Assay (immunofluorescence of endogenous nuclear AR); type: cell-based; conditions: 24 h incubation; for DC50: concentration giving 50% of maximum degradation of AR per curve fit, single experiment or average of two or more; for Dmax: LNCaP, maximum degradation observed, normalized as % of positive control (prior art AR PROTAC at 3 μM)
T1 construct: the prostate cancer cell line LNCaP (expressing AR-full length); endogenous in cells; host or cells: LNCaP
How it was run: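 Endogenous nuclear AR level was imaged by immunofluorescence after 24 h compound exposure (12-point dose response, 0.3% DMSO, 37° C./5% CO2) in LNCaP cells. Data were expressed as % of a 3 μM prior-art AR PROTAC control and fitted (bell fit where a hook appeared) to give DC50 and maximum degradation Dmax.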

[2] = target: T2, AR (L702H) in LNCaP cells (Homo sapiens, UniProt P10275, L702H/T878A); assay: LNCaP Androgen Receptor L702H Imaging Assay (LNCaP cells engineered by CRISPR/Cas9); type: cell-based; conditions: LNCaP cells with AR L702H mutation, 24 h incubation; for DC50: concentration giving 50% of maximum degradation of AR (L702H) per curve fit; for Dmax: LNCaP, maximum degradation observed, normalized as % of positive control
T2 construct: engineered to introduce the mutation L702H into the AR gene using CRISPR/Cas9; endogenous in cells; host or cells: LNCaP cells edited by CRISPR/Cas9 at the AR gene
How it was run: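 AR (L702H) degradation, expressed as DC50 and Dmax from curve fits normalized to a positive degrader control, was measured by high-content imaging of anti-AR immunofluorescence. The engineered LNCaP line was dosed over 12 concentrations for 24 h, 0.3% DMSO final, before PFA fixation.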

T2 sequence (P10275 whole entry L702H/T878A): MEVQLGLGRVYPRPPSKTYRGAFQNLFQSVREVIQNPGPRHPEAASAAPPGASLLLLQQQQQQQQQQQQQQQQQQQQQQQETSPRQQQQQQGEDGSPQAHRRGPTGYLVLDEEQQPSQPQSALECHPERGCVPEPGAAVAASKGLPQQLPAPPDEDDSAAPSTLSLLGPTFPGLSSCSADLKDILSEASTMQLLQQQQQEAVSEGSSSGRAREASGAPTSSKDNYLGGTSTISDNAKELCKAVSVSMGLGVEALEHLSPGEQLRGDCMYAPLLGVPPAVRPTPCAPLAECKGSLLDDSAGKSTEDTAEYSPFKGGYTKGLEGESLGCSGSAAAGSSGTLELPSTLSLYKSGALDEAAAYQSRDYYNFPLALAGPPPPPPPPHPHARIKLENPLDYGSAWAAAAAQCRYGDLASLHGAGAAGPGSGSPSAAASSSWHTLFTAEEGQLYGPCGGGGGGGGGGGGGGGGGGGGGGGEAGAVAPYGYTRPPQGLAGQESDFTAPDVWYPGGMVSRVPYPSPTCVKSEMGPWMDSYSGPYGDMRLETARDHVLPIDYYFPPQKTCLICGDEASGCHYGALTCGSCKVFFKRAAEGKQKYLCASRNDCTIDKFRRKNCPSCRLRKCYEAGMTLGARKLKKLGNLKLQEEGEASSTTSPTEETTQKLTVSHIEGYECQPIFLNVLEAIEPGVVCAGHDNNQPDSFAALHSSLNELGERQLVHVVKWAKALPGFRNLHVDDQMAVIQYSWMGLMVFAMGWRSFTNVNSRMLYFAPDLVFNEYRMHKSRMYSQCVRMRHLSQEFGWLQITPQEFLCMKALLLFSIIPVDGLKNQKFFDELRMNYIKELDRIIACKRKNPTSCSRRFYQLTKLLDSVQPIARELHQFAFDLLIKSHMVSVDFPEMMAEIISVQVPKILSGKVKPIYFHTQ
T2 sequence (Q96SW2 whole entry partner): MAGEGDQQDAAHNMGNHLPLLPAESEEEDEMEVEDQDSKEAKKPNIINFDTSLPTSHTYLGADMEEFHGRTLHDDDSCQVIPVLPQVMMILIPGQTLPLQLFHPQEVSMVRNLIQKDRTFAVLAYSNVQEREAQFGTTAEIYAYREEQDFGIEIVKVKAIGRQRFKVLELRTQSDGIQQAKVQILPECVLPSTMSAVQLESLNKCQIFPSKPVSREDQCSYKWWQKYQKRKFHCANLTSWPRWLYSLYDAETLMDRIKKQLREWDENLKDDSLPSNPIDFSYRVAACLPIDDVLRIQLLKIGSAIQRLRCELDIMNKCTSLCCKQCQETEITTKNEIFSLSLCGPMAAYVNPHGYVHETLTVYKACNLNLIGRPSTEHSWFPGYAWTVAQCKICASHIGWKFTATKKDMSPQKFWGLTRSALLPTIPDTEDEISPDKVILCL
T1 sequence (P10275 whole entry T878A): as the sequence (P10275 whole entry L702H/T878A) above, with H702L counted along it
T1 sequence (Q96SW2 whole entry partner): as the sequence (Q96SW2 whole entry partner) above

| Compound | DC50 [1] [nM] | Dmax [1] [%] | DC50 [2] [nM] | Dmax [2] [%] |
| --- | --- | --- | --- | --- |
| Cn1c(C2CCN(CC3CCN(c4ccc([C@@H]5CCCN(c6ccc(Cl)c7c(C#N)c[nH]c67)C5)cc4)CC3)CC2)cc2cc(F)c(N3CCC(=O)NC3=O)cc21 [Example 137, 4-Chloro-7-[(3S)-3-{4-[4-({4-[6-(2,4-dioxo-1,3-diazinan-1-yl)-5-fluoro-1-methyl-1H-indol-2-yl]piperidin-1-yl}methyl)piperidin-1-yl]phenyl}piperidin-1-yl]-1H-indole-3-carbonitrile] | 10 | 105 | 20 | 109 |
| Cn1c(C2CCN(CC3CCN(c4ccc([C@H]5CCCN(c6ccc(Cl)c7c(C#N)n[nH]c67)C5)cc4)CC3)CC2)cc2cc(F)c(N3CCC(=O)NC3=O)cc21 [Example 138, 4-Chloro-7-[(3R)-3-{4-[4-({4-[6-(2,4-dioxo-1,3-diazinan-1-yl)-5-fluoro-1-methyl-1H-indol-2-yl]piperidin-1-yl}methyl)piperidin-1-yl]phenyl}piperidin-1-yl]-1H-indazole-3-carbonitrile] | 8 | 104 | 6 | 108 |
| Cn1c(C2CCN(CC3CCN(c4ccc([C@@H]5CCCN(c6ccc(Cl)c7c(C#N)n[nH]c67)C5)cc4)CC3)CC2)cc2cc(F)c(N3CCC(=O)NC3=O)cc21 [Example 139, 4-Chloro-7-[(3S)-3-{4-[4-({4-[6-(2,4-dioxo-1,3-diazinan-1-yl)-5-fluoro-1-methyl-1H-indol-2-yl]piperidin-1-yl}methyl)piperidin-1-yl]phenyl}piperidin-1-yl]-1H-indazole-3-carbonitrile] | 10 | 105 | 16 | 107 |
| Cn1c(C2CCN(CC3CCN(c4ccc(C5CCN(c6ccc(F)c7c(C#N)n[nH]c67)CC5)cc4)CC3)CC2)cc2ccc(N3CCC(=O)NC3=O)cc21 [Example 140, 7-(4-{4-[4-({4-[6-(2,4-Dioxo-1,3-diazinan-1-yl)-1-methyl-1H-indol-2-yl]piperidin-1-yl}methyl)piperidin-1-yl]phenyl}piperidin-1-yl)-4-fluoro-1H-indazole-3-carbonitrile] | 7 | 88 | 14 | 56 |
| Cc1cc2c(N3CCC(=O)NC3=O)cccc2n1C1CCN(CC2CCN(c3ccc(C4CCN(c5ccc(F)c6c(C#N)c[nH]c56)CC4)cc3)CC2)CC1 [Example 141, 7-(4-{4-[4-({4-[4-(2,4-Dioxo-1,3-diazinan-1-yl)-2-methyl-1H-indol-1-yl]piperidin-1-yl}methyl)piperidin-1-yl]phenyl}piperidin-1-yl)-4-fluoro-1H-indole-3-carbonitrile] | 21 | 95 | 23 | 105 |
| N#Cc1c[nH]c2c(N3CCC(c4ccc(N5CC6(CCC(CN7CCC(n8ccc9c(N%10CCC(=O)NC%10=O)cccc98)CC7)CC6)C5)cc4)CC3)ccc(Cl)c12 [Example 142, 4-Chloro-7-(4-{4-[7-({4-[4-(2,4-dioxo-1,3-diazinan-1-yl)-1H-indol-1-yl]piperidin-1-yl}methyl)-2-azaspiro[3.5]nonan-2-yl]phenyl}piperidin-1-yl)-1H-indole-3-carbonitrile] | 25 | 106 | 45 | 109 |
| COc1nc(N2CCN(CC3CCN(c4ccc(C5CCN(c6ccc(Cl)c7c(C#N)n[nH]c67)CC5)cc4)CC3)CC2)cc2c1C(=O)N(C1CCC(=O)NC1=O)C2 (centres unmarked) [Example 143, 4-Chloro-7-(4-{4-[4-({4-[2-(2,6-dioxopiperidin-3-yl)-4-methoxy-3-oxo-2,3-dihydro-1H-pyrrolo[3,4-c]pyridin-6-yl]piperazin-1-yl}methyl)piperidin-1-yl]phenyl}piperidin-1-yl)-1H-indazole-3-carbonitrile] | 37 | 101 | 67 | 104 |
| COc1nc(N2CCN(CC3CCN(c4ccc(C5CCN(c6ccc(F)c7c(C#N)n[nH]c67)CC5)cc4)CC3)CC2)cc2c1C(=O)N(C1CCC(=O)NC1=O)C2 (centres unmarked) [Example 144, 7-(4-{4-[4-({4-[2-(2,6-Dioxopiperidin-3-yl)-4-methoxy-3-oxo-2,3-dihydro-1H-pyrrolo[3,4-c]pyridin-6-yl]piperazin-1-yl}methyl)piperidin-1-yl]phenyl}piperidin-1-yl)-4-fluoro-1H-indazole-3-carbonitrile] | 21 | 97 | 95 | 75 |
| N#Cc1n[nH]c2c(N3CCC(c4ccc(N5CCC(CN6CCN(c7ccc8c(c7)CN(C7CCC(=O)NC7=O)C8=O)CC6)CC5)cc4)CC3)ccc(F)c12 (centres unmarked) [Example 145, 7-(4-{4-[4-({4-[2-(2,6-Dioxopiperidin-3-yl)-1-oxo-2,3-dihydro-1H-isoindol-5-yl]piperazin-1-yl}methyl)piperidin-1-yl]phenyl}piperidin-1-yl)-4-fluoro-1H-indazole-3-carbonitrile] | 9 | 98 | 40 | 70 |
| N#Cc1n[nH]c2c(N3CCC(c4ccc(N5CCC(CN6CCC(n7ccc8c(N9CCC(=O)NC9=O)cccc87)CC6)CC5)cc4)CC3)ccc(Cl)c12 [Example 146, 4-Chloro-7-(4-{4-[4-({4-[4-(2,4-dioxo-1,3-diazinan-1-yl)-1H-indol-1-yl]piperidin-1-yl}methyl)piperidin-1-yl]phenyl}piperidin-1-yl)-1H-indazole-3-carbonitrile] | 27 | 100 | 38 | 102 |
| N#Cc1n[nH]c2c(N3CCC(c4ccc(N5CCC(CN6CCC(n7ccc8c(N9CCC(=O)NC9=O)cccc87)CC6)CC5)cc4)CC3)ccc(F)c12 [Example 147, 7-(4-{4-[4-({4-[4-(2,4-Dioxo-1,3-diazinan-1-yl)-1H-indol-1-yl]piperidin-1-yl}methyl)piperidin-1-yl]phenyl}piperidin-1-yl)-4-fluoro-1H-indazole-3-carbonitrile] | 6 | 102 | 38 | 96 |
| COc1cc(N2CCN(CCCCOc3ccc(C4CCN(c5ccc(C)c6c(C#N)n[nH]c56)CC4)cc3)CC2)cc2c1C(=O)N(C1CCC(=O)NC1=O)C2 (centres unmarked) [Example 148, 7-{4-[4-(4-{4-[2-(2,6-Dioxopiperidin-3-yl)-7-methoxy-1-oxo-2,3-dihydro-1H-isoindol-5-yl]piperazin-1-yl}butoxy)phenyl]piperidin-1-yl}-4-methyl-1H-indazole-3-carbonitrile] | 20 | 99 | 52 | 89 |
| COc1cc(N2CCN(CC3CCN(c4ccc(C5CCN(c6ccc(C)c7c(C#N)n[nH]c67)CC5)cc4)CC3)CC2)cc2c1C(=O)N(C1CCC(=O)NC1=O)C2 (centres unmarked) [Example 149, 7-(4-{4-[4-({4-[2-(2,6-Dioxopiperidin-3-yl)-7-methoxy-1-oxo-2,3-dihydro-1H-isoindol-5-yl]piperazin-1-yl}methyl)piperidin-1-yl]phenyl}piperidin-1-yl)-4-methyl-1H-indazole-3-carbonitrile] | 20 | 96 | 60 | 91 |
| N#Cc1n[nH]c2c(N3CCC(NC(=O)c4ccc(N5CCC(CN6CCC(n7ccc8c(N9CCC(=O)NC9=O)cccc87)CC6)CC5)cc4F)CC3)ccc(Cl)c12 [Example 152, N-[1-(4-Chloro-3-cyano-1H-indazol-7-yl)piperidin-4-yl]-4-[4-({4-[4-(2,4-dioxo-1,3-diazinan-1-yl)-1H-indol-1-yl]piperidin-1-yl}methyl)piperidin-1-yl]-2-fluorobenzamide] | 2 | 105 | 2 | 108 |
| N#Cc1c[nH]c2c(N3CCC(NC(=O)c4ccc(N5CCC(CN6CCC(n7ccc8cc(N9CCC(=O)NC9=O)ccc87)CC6)CC5)cc4F)CC3)ccc(Cl)c12 [Example 153, N-[1-(4-Chloro-3-cyano-1H-indol-7-yl)piperidin-4-yl]-4-[4-({4-[5-(2,4-dioxo-1,3-diazinan-1-yl)-1H-indol-1-yl]piperidin-1-yl}methyl)piperidin-1-yl]-2-fluorobenzamide] | 2 | 109 | 3 | 114 |
| N#Cc1c[nH]c2c(N3CCC(NC(=O)c4ccc(N5CCC(CN6CCN(c7ccc(C(=O)NC8CCC(=O)NC8=O)c(F)c7)CC6)CC5)cc4F)CC3)ccc(Cl)c12 (centres unmarked) [Example 154] | 4 | 81 | 9 | 79 |
| N#Cc1c[nH]c2c(N3CCC(NC(=O)c4ccc(N5CCC(CN6Cc7cc8c(cc7C6)C(=O)N(C6CCC(=O)NC6=O)C8=O)CC5)cc4F)CC3)ccc(Cl)c12 (centres unmarked) [Example 155, N-[1-(4-Chloro-3-cyano-1H-indol-7-yl)piperidin-4-yl]-4-(4-{[6-(2,6-dioxopiperidin-3-yl)-5,7-dioxo-3,5,6,7-tetrahydropyrrolo[3,4-f]isoindol-2(1H)-yl]methyl}piperidin-1-yl)-2-fluorobenzamide] | 4 | 80 | 17 | 82 |
